The text below walks through data of ChEMBL document CHEMBL3045077, “Intravenous pharmacokinetics and oral bioavailability of biochanin A in female rats” (Med Chem Res, 2011).

By clearance is commonly meant a measure of how efficiently the substance is removed, as volume per time.

What all share (assay type): ADME, organism-based
Data set [1] is described as follows: Apparent volume of distribution in Rattus norvegicus Sprague-Dawley (rat) at 5 mg/kg, iv. More on the design: dose 5 mg/kg, route intravenous. The settings on record: in vivo, read-out: Vd(app).
A short description of data set [2]: Apparent elimination half life in Rattus norvegicus Sprague-Dawley (rat) at 5 mg/kg, iv. More on the design: dose 5 mg/kg, route intravenous. To be noted: in vivo, read-out: betat1/2(app) (converted).
Data set [3] in a line: Apparent elimination half life in Rattus norvegicus Sprague-Dawley (rat) at 50 mg/kg, po. More on the design: dose 50 mg/kg, route oral. The settings on record: in vivo, read-out: betat1/2(app) (converted).
Data set [4] is described as follows: Total clearance in Rattus norvegicus Sprague-Dawley (rat) at 5 mg/kg, iv. The settings on record: in vivo. More on the design: dose 5 mg/kg, route intravenous.

As to `COc1ccc(-c2coc3cc(O)cc(O)c3c2=O)cc1` [BIOCHANIN], the Vd in data set [1] turned out to be 10.6 L/kg. For the same compound, the half-life in data set [2] is 1 h; in data set [3], 13.7 h. In data set [4], this compound showed a clearance of 262 mL/min/kg.
